# Experimental data as given in ChEMBL document CHEMBL3507680, “University of Dundee, Gates Library screen for HepG2 cell viability”.
# Test: Human HepG2 cell viability assay in 384 well format
# Type: toxicity, cell-based
# Design: dose 125 nL, time 70.5 hour; concentration not given beside the values
# Settings: HepG2 cells, read-out: Inhibition
row,SMILES,cytotoxicity at 70.5 h [%]
1,COCCN(C)C(=O)Nc1ccc2c(ccn2CC(=O)N(C)C)c1,-3.43
2,COCCOc1ccc(F)cc1NCc1nc2ccccc2n1C,11.4
3,C=C(C)CN1CCCC(NS(C)(=O)=O)C1 (configuration not stated),-5.08
4,CCc1nnc(CNC(=O)CCC2CCCN(C)C2)s1 (configuration not stated),-0.522
5,N#Cc1cc(F)c(NCCc2cccnc2)c(F)c1,-4.91
6,Cc1noc(C)c1CNC(=O)N1CCC(Cc2cnn(C)c2)C1 (configuration not stated),-3.98
7,c1coc(CN2CCC3(CC2)COCCN(CCN2CCCC2)C3)c1,-0.522
8,CCc1csc(CCNC(=O)CC2CCN(C(C)C)CC2)n1,23
9,OC1CCN(c2ccc(CNc3nc4ccccc4o3)cc2F)CC1,-9.97
10,C1CC(N2Cc3nnn(CC4CC4)c3C(COCC3CC3)C2)C1 (configuration not stated),-3.4
11,O=C(NCc1cc[nH]n1)NCC(c1ccccc1Cl)N1CCCC1 (configuration not stated),-14.6
12,Cc1nnc(NCc2cccnc2OCC(F)(F)F)c(C#N)c1C,-0.691
13,O=C(CN1CCOC(Cn2cccn2)C1)NC1CCN(C2CC2)CC1 (configuration not stated),-6.52
14,CCn1nc(C)c(-c2cncn2Cc2ccccc2CN(C)C)c1C,-3.79
15,O=C1NC2(Cc3ccccc31)CN(CC1CCOCC1)C2,25.2
16,COCCNC(=O)C1CN(Cc2nccs2)Cc2ccnn2C1 (configuration not stated),-6.42
17,Cc1nccn1Cc1nnc(C2CCCN(Cc3ccncc3)C2)n1C (configuration not stated),-17.2
18,CCC(C)(CNC(=O)Nc1nccs1)N1CCOCC1 (configuration not stated),-8.6
19,CC(C)N1[C@@H](C(=O)NCCN(C)C)C[C@H]2CN(c3ncccn3)C[C@H]21,-2.96
20,CN1CCCCCC1C(=O)NCCCn1ncc2ccccc21 (configuration not stated),-11.3
21,CC1CCN(C(=O)Cn2cc(I)cn2)CC1,0.739
22,O=C1NC2(CCN(C(=O)CN3CCOCC3)CC2)Nc2ccc(Cl)cc21,-2.29
23,Cc1nc(N)cc(C2(C)CCCNC2)n1 (configuration not stated),-5.33

row,SMILES,cytotoxicity at 70.5 h [%]
1,COc1cccc(C2CCN(c3ccc4cc[nH]c4n3)C2)c1OC (configuration not stated),1.26
2,CN(C(=O)c1cccnc1OCC(F)F)c1ccc2c(c1)CCO2,-9.98
3,Cc1cc2c(cc1C(=O)N1CCC3(CC(=O)NC3=O)C1)OCCO2 (configuration not stated),10.6
4,O=C(NCC1(O)CCC1)c1cccc(-n2cccn2)c1,-11.6
5,Cc1[nH]ccc1C(=O)N[C@H]1CN(S(C)(=O)=O)C[C@@H]1C1CC1,-5.26
6,CC(Cc1ccccc1F)C(=O)Nc1ccc(OCCC(N)=O)cc1 (configuration not stated),-3.92
7,O=C(Cc1ccccn1)N1CCN2C[C@H](Oc3cccc(F)c3)C[C@H]2C1,33.7
8,Fc1ccccc1CN1CCC[C@@H](Cn2nnc(-c3cccs3)n2)C1,-3.35
9,O=C(NCCCn1cncn1)NCC(c1ccco1)N1CCCCC1 (configuration not stated),-18.7
10,CCc1nnc2n1CCN(Cc1csc(-c3ccccc3)n1)C2,-12.9
11,COCCCN(Cc1ccccn1)Cc1ccnn1C1CCCCO1 (configuration not stated),13.4
12,COCCC1(C(=O)O)CCCN(C(=O)c2cc(Cl)ccc2F)C1 (configuration not stated),-5.3
13,CCCC1C=CCN1C(=O)c1cc(COc2ccc3c(c2)OCO3)[nH]n1 (configuration not stated),-11
14,O=C1CNc2ncnc(Nc3cccc(Cn4cccn4)c3)c2N1,-6.61
15,Cc1noc(C2CCN(Cn3cc(Cl)cn3)CC2)n1,-4.35
16,COC(=O)c1cc2c(OC)c(OC)c(OC)cc2[nH]1,-19.4
17,CC(=O)NCCCSCCOc1cccc(C#N)c1,2.91
18,O=C1N(CC2CC2)C(c2c[nH]nc2-c2cccnc2)NC12CCCC2 (configuration not stated),-12.7
19,CCOc1ccc(NC2CCN(C(C)C)C2=O)cn1 (configuration not stated),-3.98
20,c1ccc(-n2ccc(CN3CCCCC3Cn3cncn3)n2)cc1 (configuration not stated),-12.9
21,CN1CC=C(CCN(C)C(=O)CCc2ccccc2)CC1,-6.34
22,CNc1cc(C(=O)N(C)Cc2cc(-c3cccs3)n[nH]2)ccn1,0.513
23,Cc1nc(N2CCC3(CCOC3)C2)c2cc[nH]c2n1 (configuration not stated),27.9

row,SMILES,cytotoxicity at 70.5 h [%]
1,Cc1nc(CN2CCN(CC(O)CN3CCOCC3)CC2)oc1C (configuration not stated),8.53
2,Cc1cc(C(=O)NC2CCN(c3ncccc3C#N)CC2)on1,-6.25
3,CC(C(N)=O)N1CCN(c2ncc(Cl)cn2)CC1 (configuration not stated),-5.36
4,CN(CCC#N)C(=O)C(C)(C)Oc1ccc(C(N)=O)cc1,20.4
5,Cc1cccc(C(C(=O)N2CC(c3ccncc3)C2)N(C)C)c1 (configuration not stated),12.4
6,Cc1nc(CN(C)Cc2cnc(N3CCOCC3)s2)no1,22.9
7,Cn1ccnc1CN1CCCN(C(=O)COC2CCCCC2)CC1,22.3
8,Cc1cnc(C(=O)N2CCCC3(CCN(c4cnn(C)c4)C3=O)C2)cn1 (configuration not stated),-3.83
9,O=C(N1CCN(c2ccccc2O)CC1)C1(O)Cc2ccccc2C1,0.667
10,Cc1nnc(NCC(c2ccco2)N(C)C)c(C#N)c1C (configuration not stated),-4.51
11,Cn1cnnc1CN1CCC2(CCC(=O)N(Cc3ccccn3)C2)CC1,-6.09
12,CC(C)(C)c1n[nH]c(C2CN(C(=O)Cn3ccccc3=O)CCO2)n1 (configuration not stated),-5.55
13,Cc1cc(=O)n(CC(=O)Nc2cccc(Cl)c2)nc1C,21.6
14,CCc1cnc(N)nc1NCCC(=O)NC1CCCCC1,-25.4
15,CSc1ccc(CN2CCC(CCC(=O)Nc3ccccc3)CC2)cc1,8.45
16,CCN(Cc1ccncc1)c1cc(C2CCN2C(C)=O)nc(C)n1 (configuration not stated),-1.55
17,CN1CC[C@]2(CN(Cc3nccs3)C[C@H]2c2ccccc2)C1=O,4.14
18,CCn1ccnc1CN1CCN(C(C)C(=O)NCc2ccco2)CC1 (configuration not stated),16.6
19,CN(Cc1ccco1)[C@@H]1CN(Cc2cccs2)C[C@@H]2CCCO[C@@H]21,-6.25
20,Cc1ccc(CN2CC[C@H]3CO[C@H](CN4CCCC4)[C@H]3C2)o1,-8.76
21,CC(NC(=O)NCc1c(F)cccc1Cl)(C(=O)O)c1ccco1 (configuration not stated),-8.24
22,Cc1cccc(CN2CCOC3(COCCN(CCN(C)C)C3)C2)n1 (configuration not stated),-3.04
23,CC(C)(C)c1c[nH]c([C@@H]2COCCN2C2CCOCC2)n1,12.2

row,SMILES,cytotoxicity at 70.5 h [%]
1,CCNC(=O)Cc1n[nH]c(-c2cncc(Br)c2)n1,32
2,Cc1ccc(CN2CCN(CC(=O)N(C)C)[C@@H]3CS(=O)(=O)C[C@@H]32)cc1C,-3.23
3,CCOc1ccc2cc(C(=O)N3CCn4c(CC)nnc4C3)[nH]c2c1,-8.2
4,CCCC(=O)NCc1ccc(N2CCCCC2)cc1,-10.2
5,COc1ccc(OCCN2CCN(Cc3nccn3C)CC2)cc1,12.8
6,Cc1nc(C)n(CC2CN(CCc3ccncc3)CCO2)n1 (configuration not stated),-0.163
7,Cc1cccnc1NC(=O)C1CSc2ncc(C)c(=O)n2C1 (configuration not stated),-2.04
8,O=C(NC[C@H]1C[C@@H]2CN(C(=O)c3ccco3)C[C@@H]2O1)c1ccsc1,-3.16
9,CC(=O)NCCNc1cc(C)nc2cc(C)nn12,0.136
10,O=C([C@H]1CC[C@@H]2[C@@H](CCN2C2CCCCC2)O1)N1CCOCC1,-7.67
11,CC1(C)[C@H](Cc2cc(CO)on2)C[C@@H]1NCc1ccc(CO)o1,14.7
12,CC(=O)N1CCN([C@@H]2CCC[C@@H](N(C)C(=O)C3CC3)[C@H]2O)CC1,-1.88
13,Cc1cncc(C(=O)N2C[C@@H](C(=O)O)[C@H](C(C)C)C2)c1,28.4
14,COc1cc(-c2cc(C3CCOC3)c(C#N)c(N)n2)ccc1O (configuration not stated),-6.12
15,COc1cccc(CNCc2ccc(NC(=O)NC(C)C)cc2)c1,7.1
16,CCCn1ccc2ccc(NC(=O)N(C)CCOC)cc21,-1.44
17,CN(Cc1cc(Br)cn1C)C(=O)c1ccsc1,-7.08
18,Cc1nc(C(=O)NCc2ccc(N3CCNC(=O)C3)c(F)c2)cs1,-5.54
19,CC(=O)c1cc(CN2C[C@@H](NS(=O)(=O)N(C)C)[C@H](C(C)C)C2)cs1,7.82
20,Cn1cc(CN2CC[C@@H]3[C@@H](CCC(=O)N3CCC3=CCCCC3)C2)cn1,-4.77
21,CCCc1nc(NCc2c(C)nn(CCC)c2C)c2cnn(C)c2n1,-9.62
22,N#Cc1cn(CCCN2CCc3ccccc32)c(=O)[nH]c1=O,21.5
23,O=C(O)[C@]12CCCN(Cc3ccccc3)C[C@H]1CN(c1ncccn1)C2,-5.39

row,SMILES,cytotoxicity at 70.5 h [%]
1,Cc1cnc(N2CCC3(CC2)CCN(c2cncnc2)C3=O)nc1,8.5
2,COc1c(CNCc2ccc(C(=O)NC3CC3)cc2)c(C)nn1C,-3.83
3,COc1ccc(C(=O)N2CCO[C@H]3[C@H](OCC4CC4)CC[C@@H]32)cc1F,-12.7
4,O=C(NCCc1ccccc1)C1CCC(Cn2cnnn2)CC1 (configuration not stated),-2.34
5,COc1ccc(CN2CCn3cc(CNC(=O)CC4CC4)nc3C2)cc1,-8.89
6,CN(Cc1cccs1)C(=O)CN(C)C1CCc2ccccc21 (configuration not stated),-7.67
7,Cc1cnn(CC2CCCN2C(=O)CCc2c(C)nc(C)[nH]c2=O)c1 (configuration not stated),-10.8
8,Cc1nn2c(-c3cnn(C)c3)nnc2s1,-7.18
9,O=C(c1ccncc1)N1CCN2C[C@H](Oc3cncnc3)C[C@H]2C1,1.56
10,Cc1nc2c(c(N3CCC(CCn4cccn4)CC3)n1)CCNCC2,-2.46
11,Cc1ncsc1CN1CC[C@](C)(O)[C@@H](Oc2cccc(F)c2)C1,-3.09
12,C=C(C)COc1cccc(C(=O)N(C)C(C)c2ccncn2)c1 (configuration not stated),-7.56
13,COc1ccc(C[C@@H]2CC[C@H](CN(C)C3CCN(C)CC3)O2)cc1,-5.62
14,CCOC(=O)Cn1ccc2cc(NC(=O)N3CCSCC3)ccc21,1.82
15,O=C(NCCCN1CCCC1=O)c1nc(-c2ccc3[nH]ccc3c2)no1,-29.3
16,Cc1cc(C(=O)N2CCCC3(COCCN(c4ccccc4)C3)C2)[nH]n1 (configuration not stated),-10.7
17,OCCN(Cc1nc(-c2ccc3c(c2)OCO3)no1)CC1CC1,4.42
18,CC(=O)c1cccc(NC(=O)Cn2cnc(-c3cccs3)cc2=O)c1,-1.2
19,COCCN1CCCC(c2nc(C)n3c(C)c(C)sc23)C1 (configuration not stated),-5.38
20,CCc1ncc2c(n1)CN(Cc1nc(-c3ccco3)oc1C)CC2,-7.47
